Results on 5 molecules are retold here after patent publication US6936585B2, “Corticotropin releasing factor 2 receptor agonists” (priority 2002, dated 2005).

For one experiment, the target named is T1, CRF1R (Homo sapiens, UniProt P34998).
T1 sequence (P34998 24-415): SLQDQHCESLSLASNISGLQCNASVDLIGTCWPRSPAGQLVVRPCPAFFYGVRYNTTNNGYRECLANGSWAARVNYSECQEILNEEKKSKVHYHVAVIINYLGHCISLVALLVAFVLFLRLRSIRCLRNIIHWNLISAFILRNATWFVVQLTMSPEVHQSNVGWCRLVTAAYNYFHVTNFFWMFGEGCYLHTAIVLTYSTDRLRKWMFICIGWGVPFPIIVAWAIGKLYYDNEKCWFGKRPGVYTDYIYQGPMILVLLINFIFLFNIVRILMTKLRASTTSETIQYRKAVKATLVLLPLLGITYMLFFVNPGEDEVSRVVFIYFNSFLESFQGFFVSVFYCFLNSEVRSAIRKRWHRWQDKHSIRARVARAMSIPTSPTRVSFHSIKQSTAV
Description: CRF1R agonist activation (EC50 / Emax), called comparative CRF binding. The class given is cell-based. The settings on record: for Emax: read-out: CRF1R Emax. The essentials: (§1)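 Receptor-expressing cells are contacted with test peptide or the vehicle it is dissolved in. Lysates are then assayed for cAMP, or expression of a CRE-coupled reporter is quantitated. Engineered cells carrying receptor-G-protein fusions may replace full-length receptors.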

The next experiment concerns the target T2, CRF2R (Homo sapiens, UniProt Q13324).
T2 sequence (Q13324 1-411): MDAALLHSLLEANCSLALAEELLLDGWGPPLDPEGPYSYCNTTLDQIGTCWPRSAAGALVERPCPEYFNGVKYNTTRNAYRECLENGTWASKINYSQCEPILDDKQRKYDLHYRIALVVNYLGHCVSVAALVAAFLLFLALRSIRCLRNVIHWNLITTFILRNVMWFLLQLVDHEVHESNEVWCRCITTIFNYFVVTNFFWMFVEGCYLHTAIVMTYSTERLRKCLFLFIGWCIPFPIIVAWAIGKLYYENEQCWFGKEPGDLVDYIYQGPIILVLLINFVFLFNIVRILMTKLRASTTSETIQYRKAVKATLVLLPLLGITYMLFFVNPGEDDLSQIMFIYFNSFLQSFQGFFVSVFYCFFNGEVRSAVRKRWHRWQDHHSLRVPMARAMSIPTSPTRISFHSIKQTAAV
Description: CRF2R agonist activation (EC50 / Emax), called comparative CRF binding. The format is cell-based. To be noted: for Emax: read-out: CRF2R Emax. The essentials:
as §1

pEC50: −log10 of the molar value. Peptide text beside a SMILES is read from it.

Regarding `CC[C@H](C)[C@H](NC(=O)[C@H](CCCNC(=N)N)NC(=O)[C@H](C)NC(=O)[C@H](CC(N)=O)NC(=O)[C@H](CCC(N)=O)NC(=O)[C@H](CCC(=O)O)NC(=O)[C@H](C)NC(=O)[C@H](CCCNC(=N)N)NC(=O)[C@H](CCC(=O)O)NC(=O)[C@H](CCCNC(=N)N)NC(=O)[C@H](CCC(N)=O)NC(=O)[C@H](CO)NC(=O)[C@H](CCC(N)=O)NC(=O)[C@@H](NC(=O)[C@H](CCCCN)NC(=O)[C@H](CCC(=O)O)NC(=O)[C@H](CC(C)C)NC(=O)[C@H](CCC(=O)O)NC(=O)[C@H](CC(C)C)NC(=O)[C@H](CC(C)C)NC(=O)[C@@H](NC(=O)[C@H](CCCNC(=N)N)NC(=O)[C@H](CC(C)C)NC(=O)[C@H](CC(C)C)NC(=O)[C@H](Cc1ccccc1)NC(=O)[C@H](CC(C)C)NC(=O)[C@@H]1CCCN1C(=O)[C@H](CC(C)C)NC(=O)[C@H](CC(=O)O)NC(=O)[C@@H](NC(=O)[C@H](CO)NC(=O)[C@H](CC(C)C)NC(=O)[C@H](CO)NC(=O)[C@@H]1CCCN1C(=O)[C@H](CC(N)=O)NC(=O)[C@@H](N)CC(=O)O)[C@@H](C)CC)[C@@H](C)O)[C@@H](C)O)C(=O)N[C@@H](Cc1ccccc1)C(=O)N[C@@H](CC(=O)O)C(=O)N[C@@H](CCCNC(=N)N)C(=O)N[C@H](C(N)=O)C(C)C` [compound 336] (H-DNPSLSIDLPLFLLRTLLELEKTQSQRERAEQNARIFDRV-NH2; N-terminus assumed), the Emax – broadly, the size of the effect at its maximum, as opposed to the concentration needed – on CRF1R came out at 59.9%; at CRF2R, 100%.
`CC[C@H](C)[C@H](NC(=O)[C@H](CCCNC(=N)N)NC(=O)[C@H](C)NC(=O)[C@H](CC(N)=O)NC(=O)[C@H](CCC(N)=O)NC(=O)[C@H](CCC(=O)O)NC(=O)[C@H](C)NC(=O)[C@H](CCCNC(=N)N)NC(=O)[C@H](CCC(=O)O)NC(=O)[C@H](CCCNC(=N)N)NC(=O)[C@H](CCC(N)=O)NC(=O)[C@H](CO)NC(=O)[C@H](CCC(N)=O)NC(=O)[C@@H](NC(=O)[C@H](CCCCN)NC(=O)[C@H](CCC(=O)O)NC(=O)[C@H](CC(C)C)NC(=O)[C@H](CCC(=O)O)NC(=O)[C@H](CC(C)C)NC(=O)[C@H](CC(C)C)NC(=O)[C@@H](NC(=O)[C@H](CCCNC(=N)N)NC(=O)[C@H](CC(C)C)NC(=O)[C@H](CC(C)C)NC(=O)[C@@H](NC(=O)[C@H](CC(C)C)NC(=O)[C@@H]1CCCN1C(=O)[C@H](CC(C)C)NC(=O)[C@H](CC(=O)O)NC(=O)[C@@H](NC(=O)[C@H](CO)NC(=O)[C@H](CC(C)C)NC(=O)[C@H](CO)NC(=O)[C@@H]1CCCN1C(=O)[C@H](CC(N)=O)NC(=O)[C@@H](N)CC(=O)O)[C@@H](C)CC)[C@@H](C)CC)[C@@H](C)O)[C@@H](C)O)C(=O)N[C@@H](Cc1ccccc1)C(=O)N[C@@H](CC(=O)O)C(=O)N[C@@H](CCCNC(=N)N)C(=O)N[C@H](C(N)=O)C(C)C` [compound 337] (H-DNPSLSIDLPLILLRTLLELEKTQSQRERAEQNARIFDRV-NH2; N-terminus assumed): the results for the pEC50 at CRF1R (read-out: CRF1R EC50) and on CRF2R (read-out: CRF2R EC50) were at most 6.00 and 7.62, respectively. Besides, the Emax on CRF1R was found to be 36.5%; at CRF2R it was 86.7%.
As for `CC[C@H](C)[C@H](NC(=O)[C@H](CCCNC(=N)N)NC(=O)[C@H](C)NC(=O)[C@H](CC(N)=O)NC(=O)[C@H](CCC(N)=O)NC(=O)[C@H](CCC(=O)O)NC(=O)[C@H](C)NC(=O)[C@H](CCCNC(=N)N)NC(=O)[C@H](CCC(=O)O)NC(=O)[C@H](CCCNC(=N)N)NC(=O)[C@H](CCC(N)=O)NC(=O)[C@H](CO)NC(=O)[C@H](CCC(N)=O)NC(=O)[C@@H](NC(=O)[C@H](CCCCN)NC(=O)[C@H](CCC(=O)O)NC(=O)[C@H](CC(C)C)NC(=O)[C@H](CCC(=O)O)NC(=O)[C@H](CC(C)C)NC(=O)[C@H](CC(C)C)NC(=O)[C@@H](NC(=O)[C@H](CCCNC(=N)N)NC(=O)[C@H](CC(C)C)NC(=O)[C@H](CC(C)C)NC(=O)[C@H](CC(C)C)NC(=O)[C@H](CC(C)C)NC(=O)[C@@H]1CCCN1C(=O)[C@H](CC(C)C)NC(=O)[C@H](CC(=O)O)NC(=O)[C@@H](NC(=O)[C@H](CO)NC(=O)[C@H](CC(C)C)NC(=O)[C@H](CO)NC(=O)[C@@H]1CCCN1C(=O)[C@H](CC(N)=O)NC(=O)[C@@H](N)CC(=O)O)[C@@H](C)CC)[C@@H](C)O)[C@@H](C)O)C(=O)N[C@@H](Cc1ccccc1)C(=O)N[C@@H](CC(=O)O)C(=O)N[C@@H](CCCNC(=N)N)C(=O)N[C@H](C(N)=O)C(C)C` [compound 338] (H-DNPSLSIDLPLLLLRTLLELEKTQSQRERAEQNARIFDRV-NH2; N-terminus assumed), the Emax at CRF1R was 41.1%; at CRF2R, 77.5%.
For `CC[C@H](C)[C@H](NC(=O)[C@H](C)NC(=O)[C@H](CC(N)=O)NC(=O)[C@H](CCC(N)=O)NC(=O)[C@H](CCC(=O)O)NC(=O)[C@H](C)NC(=O)[C@H](CCCNC(=N)N)NC(=O)[C@H](CCC(=O)O)NC(=O)[C@H](CCCNC(=N)N)NC(=O)[C@H](CCC(N)=O)NC(=O)[C@H](CO)NC(=O)[C@H](CCC(N)=O)NC(=O)[C@@H](NC(=O)[C@H](CCCNC(=N)N)NC(=O)[C@H](C)NC(=O)[C@H](CC(C)C)NC(=O)[C@H](CCC(=O)O)NC(=O)[C@H](CC(C)C)NC(=O)[C@H](CC(C)C)NC(=O)[C@@H](NC(=O)[C@H](CCCNC(=N)N)NC(=O)[C@H](CC(C)C)NC(=O)[C@H](CC(C)C)NC(=O)[C@H](Cc1ccc(O)cc1)NC(=O)[C@H](CCC(N)=O)NC(=O)[C@@H]1CCCN1C(=O)[C@H](CC(C)C)NC(=O)[C@H](CC(=O)O)NC(=O)[C@@H](NC(=O)[C@H](CO)NC(=O)[C@H](CC(C)C)NC(=O)[C@H](CO)NC(=O)[C@@H]1CCCN1C(=O)[C@H](CC(N)=O)NC(=O)[C@@H](N)CC(=O)O)[C@@H](C)CC)[C@@H](C)O)[C@@H](C)O)C(=O)N[C@H](C(=O)N[C@@H](Cc1ccccc1)C(=O)N[C@@H](C)C(=O)N[C@@H](CO)C(=O)N[C@H](C(N)=O)C(C)C)[C@@H](C)CC` [compound 339] (H-DNPSLSIDLPQYLLRTLLELARTQSQRERAEQNAIIFASV-NH2) the same measures were 13.2% and 47.9%.
Turning to `CC[C@H](C)[C@H](NC(=O)[C@H](CCCNC(=N)N)NC(=O)[C@H](C)NC(=O)[C@H](CC(N)=O)NC(=O)[C@H](CCC(N)=O)NC(=O)[C@H](CCC(=O)O)NC(=O)[C@H](C)NC(=O)[C@H](CCCNC(=N)N)NC(=O)[C@H](CCC(=O)O)NC(=O)[C@H](CCCNC(=N)N)NC(=O)[C@H](CCC(N)=O)NC(=O)[C@H](CO)NC(=O)[C@H](CCC(N)=O)NC(=O)[C@@H](NC(=O)[C@H](CCCNC(=N)N)NC(=O)[C@H](C)NC(=O)[C@H](CC(C)C)NC(=O)[C@H](CCC(=O)O)NC(=O)[C@H](CC(C)C)NC(=O)[C@H](CC(C)C)NC(=O)[C@@H](NC(=O)[C@H](CCCNC(=N)N)NC(=O)[C@H](CC(C)C)NC(=O)[C@H](CC(C)C)NC(=O)[C@H](CC(C)C)NC(=O)[C@H](CC(C)C)NC(=O)[C@@H]1CCCN1C(=O)[C@H](CC(C)C)NC(=O)[C@H](CC(=O)O)NC(=O)[C@@H](NC(=O)[C@H](CO)NC(=O)[C@H](CC(C)C)NC(=O)[C@H](CO)NC(=O)[C@@H]1CCCN1C(=O)[C@H](CC(N)=O)NC(=O)[C@@H](N)CC(=O)O)[C@@H](C)CC)[C@@H](C)O)[C@@H](C)O)C(=O)N[C@@H](Cc1ccccc1)C(=O)N[C@@H](C)C(=O)N[C@@H](CCCNC(=N)N)C(=O)N[C@H](C(N)=O)C(C)C` [compound 340] (H-DNPSLSIDLPLLLLRTLLELARTQSQRERAEQNARIFARV-NH2; N-terminus assumed), the Emax on CRF1R worked out at 96%; on CRF2R, 100%.
